Format in all cases: biochemical
The target in experiment [1] is T1, DPP-4 (Homo sapiens, UniProt P27487). The experiment can be described thus: Relative cleavage rates of coumarin (AMCC) dipeptide substrates by DPP-4. Further details: DPP-4 (amino acids 39-766); FLAG (N); made in house; host or cells: 293 cells (secreted, purified from serum-free conditioned media). Conditions: for relative cleavage rate by DPP-4: N-blocked Gly-Pro-AMCC substrates 6, normalized to N-unblocked Gly-Pro-AMCC; for relative cleavage rate by DPP-4 / cleavage of N-substituted-Gly-Pro-AMCC substrates by DPP-4 (in words): DPP-4 6.8 nM; for cleavage of N-substituted-Gly-Pro-AMCC substrates by DPP-4 (in words): substrate concentrations up to 1 mM. The method, then:
(§1) The relative cleavage rates of a variety of N-blocked, C-terminal coumarin (AMCC) Gly-Pro dipeptide substrates 6 were measured. The rates were normalized to N-unblocked Gly-Pro-AMCC for FAP and DPP-4.
(§2) To examine whether FAP could cleave other N-substituted-Gly-Pro-based substrates, N-methyl-, formyl-, succinyl-, benzyloxycarbonyl-(Z-) and biotinyl-Gly-Pro-AMCC substrates 6 were synthesized and reacted with FAP (37 nM) and DPP-4 (6.8 nM).
(§3) Amino-terminus P2 was varied with the L-amino acids: alanine, aspartic acid, glutamic acid, phenylalanine, glycine, histidine, isoleucine, lysine, leucine, methionine, asparagine, proline, glutamine, arginine, serine, threonine, valine, tryptophan, and tyrosine (from left). AMCC=2-(7-amino-4-methyl-2-oxo-2H-chromen-3-yl)acetamide. For both enzymes, the amino acid adjacent in the model dipeptide substrate had little effect where the amino-terminus was unblocked. Hydrolysis rates of other P2-Pro-AMCC substrates by FAP and DPP-4 relative to Gly-Pro-AMCC include the following in Table 6:
(§4) Protease Assays—Protease activity was monitored continuously using a SpectraMax M2 microplate reader (Molecular Devices Corp., Sunnyvale Calif.) in the kinetic mode. Assays were conducted at 23° C. in 50 mM Tris (pH 7.4), 100 mM NaCl, 1 mM EDTA. The excitation/emission wavelengths for the different fluorogenic substrates were 360/460 nm (AMC), 400/505 nm (AFC), 340/425 nm (MNA), 340/510 nm (EDANS), and 337/425 nm (Abs). Standard curves of the appropriate fluorescent product versus concentration were used to convert relative fluorescence units to nmol of product produced. Substrates in the X-Pro-AMC library were used in rate assays at 5 μM final concentration. […] The kinetic parameters were calculated from Michaelis-Menten plots (V0 versus [S]) with nonlinear regression analysis using GraphPad software. kcat values were calculated under the assumption that each protease was 100% active.

In experiment [2] the target is T2, FAP (Homo sapiens, UniProt Q12884).
T2 sequence (Q12884 38-760): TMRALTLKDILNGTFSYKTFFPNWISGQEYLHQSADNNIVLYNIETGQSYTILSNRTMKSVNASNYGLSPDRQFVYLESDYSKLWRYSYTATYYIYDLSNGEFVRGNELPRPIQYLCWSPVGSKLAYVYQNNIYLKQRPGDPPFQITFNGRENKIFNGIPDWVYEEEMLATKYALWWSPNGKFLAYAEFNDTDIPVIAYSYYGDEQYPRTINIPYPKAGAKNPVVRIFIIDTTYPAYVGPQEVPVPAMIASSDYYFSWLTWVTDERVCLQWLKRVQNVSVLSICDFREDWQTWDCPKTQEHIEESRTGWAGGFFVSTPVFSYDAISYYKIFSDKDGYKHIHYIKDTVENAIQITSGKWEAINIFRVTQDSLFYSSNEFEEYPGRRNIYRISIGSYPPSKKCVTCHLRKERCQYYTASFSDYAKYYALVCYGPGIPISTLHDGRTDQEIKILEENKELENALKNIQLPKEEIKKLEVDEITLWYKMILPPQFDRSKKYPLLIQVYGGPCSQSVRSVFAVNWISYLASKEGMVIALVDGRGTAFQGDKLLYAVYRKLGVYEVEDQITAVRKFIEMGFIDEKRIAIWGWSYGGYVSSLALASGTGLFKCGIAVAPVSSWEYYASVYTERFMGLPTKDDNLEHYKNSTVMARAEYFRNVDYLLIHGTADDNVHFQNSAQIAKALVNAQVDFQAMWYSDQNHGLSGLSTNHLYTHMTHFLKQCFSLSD
Nature of the experiment: Relative cleavage rates of coumarin (AMCC) dipeptide substrates by FAP. Further details: FAP (amino acids 38-760); FLAG (N); made in house; host or cells: 293 cells (secreted, purified from serum-free conditioned media). Conditions: for relative cleavage rate by FAP: N-blocked Gly-Pro-AMCC substrates 6, normalized to N-unblocked Gly-Pro-AMCC, FAP 37 nM. As for the experimental part: as §1, §2, §3, §4

The target of experiment [3] is T2, FAP. Nature of the experiment: Hydrolysis of C-terminal coumarin dipeptide substrates by FAP (kinetic constants). Conditions: for Km / Kcat: pH 7.4, NC = no cleavage up to 1 mM substrate. Further details: FAP (amino acids 38-760); FLAG (N); made in house; host or cells: 293 cells (secreted, purified from serum-free conditioned media). The method, then:
(§5) The relative cleavage rates by FAP and several dipeptidases of N-blocked (8) and unblocked (7) Gly-Pro dipeptide substrates were measured.
(§6) The cleavage (hydrolysis) rates of various C-terminal coumarin dipeptide substrates 7-16 by FAP and DPP-4 were measured (Tables 4 and 5). The amino-terminus of the substrates was unblocked and the amino acids were varied in Table 4. The amino-terminus of the substrates was blocked and the amino acids were varied in Table 5. To extend the results obtained with the dipeptide substrate library, kinetic parameters were determined for cleavage of the unblocked dipeptide substrates by FAP (Table 4). The catalytic efficiency (kcat/Km) for substrate cleavage was greatest with Ile-Pro-AFC, followed by Ala-Pro-, Gly-Pro- and Phe-Pro-AFC, consistent with the dipeptide substrate library results (FIG. 5). […] Kinetic constants for cleavage of Ala-Pro-AFC and Gly-Pro-AFC by DPP-4 were determined (Table 4). The catalytic efficiency for Ala-Pro-AFC hydrolysis was greater than that for Gly-Pro-AFC, and consistent with the dipeptide library.
as §4
(§7) When saturating amounts of substrate could not be achieved, catalytic efficiencies (kcat/Km) were determined under pseudo-first order conditions ([S]<<the estimated Km) and fit to the following equation: Ln[St/S0]=−kobst, where St is the concentration of substrate remaining at time t, S0 is the initial substrate concentration and kobs is the apparent first order substrate cleavage constant equal to (kcat/Km) times ET, the total enzyme concentration (Copeland, R. (2000) Enzymes, A Practical Introduction to Structure, Mechanism, and Data Analysis, 2nd Ed., John Wiley and Sons, Inc, New York). The linear relationship of Ln[St/S0] versus time allows calculation of kcat/Km by dividing the slope of the plot by ET.

For experiment [4], the target named is T1, DPP-4. Nature of the experiment: Hydrolysis of C-terminal coumarin dipeptide substrates by DPP-4 (kinetic constants). Further details: DPP-4 (amino acids 39-766); FLAG (N); made in house; host or cells: 293 cells (secreted, purified from serum-free conditioned media). As for the experimental part: as §5, §6, §4, §7
The target of experiment [5] is T1, DPP-4. The experiment can be described thus: Inhibition of DPP-4 by N-blocked boroPro compounds (progress curves). Further details: DPP-4 (amino acids 39-766); FLAG (N); made in house; host or cells: 293 cells (secreted, purified from serum-free conditioned media). Conditions: cleavage of substrate L-Ala-Pro-AFC. The method, then:
The steady states of product formation in the absence (V0) and presence of inhibitor (Vi) were used to calculate apparent inhibition constants (Kiapp) by plotting V0/Vi−1 against inhibitor concentration.
Briefly, proteases were added to a reaction mixture containing inhibitor and substrate (Ac-Ala-AMC for APH, Z-Gly-Pro-AMC for POP, and Ala-Pro-AFC for all others) in assay buffer at 23° C. Protease activity was followed continuously as described above to monitor time-dependent inhibition. Data were plotted as V0/Vi−1 versus [I], where V0 is the rate if substrate hydrolysis in the absence of inhibitor, Vi is the steady state rate of substrate hydrolysis in the presence of inhibitor and [I] is the concentration of Ac-Gly-BoroPro.
KI values for inhibition of proteases by 5 were determined using the method of progress curves. Briefly, proteases (10-100 nM) were added to a reaction mixture containing inhibitor 5 (0-10 μM) and substrate AP-AFC in assay buffer at 23° C. […] Data were plotted as V0/Vi−1 versus [I], where V0 is the rate if substrate hydrolysis in the absence of inhibitor, Vi is the steady state rate of substrate hydrolysis in the presence of inhibitor and [I] is the concentration of 5. […] Ki, the true equilibrium inhibition constant was determined according to the following relationship: Ki=Kobs/(1+[S]/Km), where [S] is the concentration of substrate used in the assay and Km is the Michaelis constant for substrate cleavage.

Where [6] appears, read: FAP, substrates with unblocked N-termini, 23° C. in 50 mM Tris-HCl, 100 mM NaCl, 1 mM EDTA.
Setting [7] is: FAP, substrates with unblocked N-termini, 23° C.
[8] abbreviates: DPP-4, substrates with unblocked N-termini, 23° C., pH 7.4.
[9] abbreviates: P2-Pro-AMCC substrates, hydrolysis rates normalized to Gly-Pro-AMCC.
Where [10] appears, read: FAP, substrates with blocked N-termini, 23° C.

Non-standard residues stand in square brackets, D forms with d. Residues, ends and D or L forms follow the SMILES beside them. ξ: configuration not given here. *: point of attachment. AFC = O=c1cc(C(F)(F)F)c2ccc(N*)cc2o1; AMC = Cc1cc(=O)oc2cc(N*)ccc12; Cbz = O=C(OCc1ccccc1)*; ξP = O=C(O)C1CCCN1

As usually defined, the Km is the substrate concentration at which the rate is half of its maximum. The term Ki denotes the dissociation constant of the complex between target and ligand, obtained from inhibition or displacement. Lower therefore signals a stronger hold on the target.

T1 sequence (P27487 39-766): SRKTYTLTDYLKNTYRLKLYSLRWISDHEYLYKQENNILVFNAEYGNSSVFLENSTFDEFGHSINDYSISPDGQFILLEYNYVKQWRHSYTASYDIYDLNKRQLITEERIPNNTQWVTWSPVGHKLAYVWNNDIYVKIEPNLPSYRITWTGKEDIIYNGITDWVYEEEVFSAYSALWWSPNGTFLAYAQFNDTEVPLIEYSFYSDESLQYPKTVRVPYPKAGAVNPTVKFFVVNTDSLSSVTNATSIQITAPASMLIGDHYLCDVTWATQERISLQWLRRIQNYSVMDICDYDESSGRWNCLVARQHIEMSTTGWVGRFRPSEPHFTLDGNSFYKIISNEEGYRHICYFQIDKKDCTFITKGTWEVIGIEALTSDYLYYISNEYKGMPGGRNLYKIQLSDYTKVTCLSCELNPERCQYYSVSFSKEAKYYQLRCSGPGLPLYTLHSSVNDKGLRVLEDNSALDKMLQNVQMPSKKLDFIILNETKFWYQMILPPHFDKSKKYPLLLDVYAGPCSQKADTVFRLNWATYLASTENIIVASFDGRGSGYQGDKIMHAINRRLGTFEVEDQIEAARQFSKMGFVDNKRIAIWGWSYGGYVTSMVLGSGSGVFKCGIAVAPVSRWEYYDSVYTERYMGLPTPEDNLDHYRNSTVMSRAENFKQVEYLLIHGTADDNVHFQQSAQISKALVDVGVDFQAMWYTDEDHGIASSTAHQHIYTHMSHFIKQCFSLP

With `O=C(O)c1ccc2c(c1)C(=O)OC21c2ccc(O)cc2Oc2cc(O)ccc21` [5-carboxyfluorescein], the “relative cleavage rate by DPP-4” value in experiment [1] was found to be 0%. In addition, the “relative cleavage rate by FAP” value in experiment [2] was found to be 36%.

Consider `C[C@H](N)C(=O)N1CCC[C@H]1C(=O)Nc1ccc2c(C(F)(F)F)cc(=O)oc2c1` [Ala-Pro-AFC 9, Ala-Pro-7-amino-4-trifluoromethylcoumarin] (H-Ala-Pro-{AFC}), for which the results for the Km in experiment [3] (setting [6]) and in experiment [4] (setting [8]) were 244 ± 28 µM and 16 ± 3 µM, respectively. The Kcat in experiment [3] (setting [7]) was found to be 14.2 ± 0.9 s⁻¹; in experiment [4] (setting [8]), 45.6 ± 1.7 s⁻¹.

In the case of `Cc1c(CC(N)=O)c(=O)oc2cc(NC(=O)[C@@H]3CCCN3C(=O)[C@@H](C)N)ccc12` [D-Ala], the “Relative Hydrolysis rate by DPP-4” value in experiment [1] (setting [9]) is 2. The “Relative Hydrolysis rate by FAP” value in experiment [2] (setting [9]) worked out at 0.

For `Cc1cc(=O)oc2cc(NC(=O)[C@H](C)NC(=O)CN)ccc12` [Gly-Ala-AMC 11, Gly-Ala-AMC] (H-Gly-Ala-{AMC}), the “cleavage by FAP (in words)” value in experiment [3] was “not cleaved”.

For `CC[C@H](C)[C@H](N)C(=O)N1CCC[C@H]1C(=O)Nc1ccc2c(C(F)(F)F)cc(=O)oc2c1` [Ile-Pro-AFC 13, Ile-Pro-AFC] (H-Ile-Pro-{AFC}), the “Km, fold lower than the other P2-Pro-AFC substrates” value in experiment [3] (FAP) is around 2.5 fold. Moreover, the Km in experiment [3] (setting [6]) turned out to be 106 ± 6 µM. This molecule also had a Kcat in experiment [3] (setting [7]) of 6.9 ± 0.3 s⁻¹.

Regarding `Cc1cc(=O)oc2cc(NC(=O)C(C)NC(=O)C(N)CCCCN)ccc12` (stereo not drawn) [Lys-Ala-AMC 12, Lys-Ala-AMC] (H-Lys-Ala-{AMC}; configuration not given here), in experiment [3] (FAP), the “catalytic efficiency, fold less than for cleavage of P2-Pro-based peptides” value was 400-1000 fold. Moreover, the Km in experiment [3] (setting [6]) amounted to 189 ± 20 µM. The molecule also yielded a Kcat in experiment [3] (setting [7]) of 0.01 ± 0.001 s⁻¹.

Consider `CC(=O)N[C@H](C)C(=O)N1CCCC1B(O)O` (some centres unmarked) [N-Ac-(D)Ala-boroPro], for which, in experiment [5], the Ki is above 40 µM.

In the case of `NC(Cc1ccccc1)C(=O)N1CCCC1C(=O)Nc1ccc2c(C(F)(F)F)cc(=O)oc2c1` (stereo not drawn) [Phe-Pro-AFC 10, Phe-Pro-AFC] (H-Phe-Pro-{AFC}; configuration not given here), the Michaelis constant (Km) in experiment [3] (setting [6]) worked out at 245 ± 22 µM. For the same molecule, the Kcat in experiment [3] (setting [7]) was 1.1 ± 0.1 s⁻¹.

Regarding `Cc1cc(=O)oc2cc(NC(=O)C3CCCN3C(=O)CNC(=O)OCc3ccccc3)ccc12` (stereo not drawn) [Z-Gly-Pro-AMC 14, Benzyloxycarbonyl (Z)-Gly-Pro-7-amino-4-methylcoumarin] (Cbz-Gly-[ξP]-{AMC}), the “catalytic efficiency, fold lower than that for Gly-Pro-AFC” value in experiment [3] (FAP) is reported as “about 3 fold”. In experiment [3] (setting [10]), the Kcat is below 30 s⁻¹ and the Km was above 4 µM. Moreover, the “DPP-4 activity against substrate (in words)” value in experiment [4] is listed as “little activity”.

Turning to N-methyl-Gly-Pro-AMCC, the “cleavage of N-substituted-Gly-Pro-AMCC substrates by DPP-4 (in words)” value (shortened to “cleavage … by DPP-4 (in words)”) in experiment [1] is listed as “comparable to Gly-Pro-AMCC”.

Turning to biotinyl-Gly-Pro-AMCC, in experiment [1], the “cleavage … by DPP-4 (in words)” value was “no cleavage” and the “relative cleavage rate by DPP-4” value amounted to 0%. For the same molecule, the “relative cleavage rate by FAP” value in experiment [2] stood at 40%.

As to formyl-Gly-Pro-AMCC [HC(═O)], in experiment [1], the “cleavage … by DPP-4 (in words)” value is on record as “low rate of hydrolysis” and the “relative cleavage rate by DPP-4” value amounted to 7%. In addition, in experiment [2], the “relative cleavage rate by FAP” value is recorded as 130%.

On to succinyl-Gly-Pro-AMCC [HO2CCH2CH2C(═O)], for which, in experiment [1], the “cleavage … by DPP-4 (in words)” value is reported as “no cleavage” and the “relative cleavage rate by DPP-4” value is given as 0%. For the same molecule, the “relative cleavage rate by FAP” value in experiment [2] was 0%.

(Values after US7399869B2, “Fibroblast activation protein inhibitor compounds and methods” (Genentech, Inc., priority 2005, dated 2008).)
